In one assay the test system is mice. The assay can be described thus: induction of natriuresis in mice in vivo (procedure of European patent application 0274234). The note with it: dose (mg/kg) given. The source says:
(§1) Appropriate reagents and conditions for the various coupling and deprotection steps, described above, together with procedures for determining the biological activity of the products of formula (II) and appropriate pharmaceutical compositions and dosage ranges for their use are described in European patent application no. 0274234.
(§2) The activity of the racemate and separated enantiomers of the cis-4-{1-[2-carboxy-3-(2-methoxyethoxy)propyl]-1-cyclopentanecarboxamido}-1-cyclohexanecarboxylic acid was assessed by measuring their ability to inhibit the neutral endopeptidase E.C.3.4.24.11 in vitro or to induce natriuresis in mice in vivo following the procedure described in European patent application 0274234.

In assay [1] the test system is neutral endopeptidase E.C.3.4.24.11. As to the kind of experiment: inhibition of neutral endopeptidase E.C.3.4.24.11 in vitro (procedure of European patent application 0274234). The note with it: general statement on the separated enantiomers of the diacid. It is filed as biochemical.
From the text: as §1, §2

As for `COCCOCC(CC1(C(=O)N[C@H]2CC[C@@H](C(=O)O)CC2)CCCC1)C(=O)O` (relative stereo) [(-) R, cis-4-{1-[2-carboxy-3-(2-methoxyethoxy)propyl]-1-cyclopentanecarboxamido}-1-cyclohexanecarboxylic acid], the “Natriuresis in mouse (i.v.)” value in the assay with mice is “inactive at 3 mg/kg”. For the same compound, in assay [1], the biological activity result was “virtually inactive”. In the case of `COCCOCC(CC1(C(=O)N[C@H]2CC[C@@H](C(=O)O)CC2)CCCC1)C(=O)O` (mixture of isomers) [(±) R,S, cis-4-{1-[2-carboxy-3-(2-methoxyethoxy)propyl]-1-cyclopentanecarboxamido}-1-cyclohexanecarboxylic acid], the “Natriuresis in mouse (i.v.)” value in the assay with mice is reported as “active at 3 mg/kg”. Still for that read-out and setting: the entry for `COCCOC[C@H](CC1(C(=O)N[C@H]2CC[C@@H](C(=O)O)CC2)CCCC1)C(=O)O` (racemic) [(±) S, (S)-cis-4-{1-[2-Carboxy-3-(2-methoxyethoxy)propyl]-1-cyclopentanecarboxamido}-1-cyclohexanecarboxylic acid] is “active at 1.5 mg/kg”.

Values taken from EP0342850A1, “Enantiomeric glutaramide diuretic agents” (Pfizer Limited, priority 1988, dated 1989).
